According to article PMC8469912, “Naproxen Based 1,3,4-Oxadiazole Derivatives as EGFR Inhibitors: Design, Synthesis, Anticancer, and Computational Studies” (Pharmaceuticals, 2021):
≈ marks a conversion by molar mass, not a printed value.

Tests used:
[1] = test system: MCF-7 (breast cells); experiment: Antiproliferative activity, sulphorhodamine B (SRB) assay, MCF-7; type: cell-based; conditions: Homo sapiens, MCF7, cytotoxicity, MCF-7 breast cancer cells, mean of three independent experiments
Protocol: (§1) The cytotoxicity of the new isolated compounds was evaluated against MCF-7 (breast cells), HepG2 (Hepatocellular) and HCT-116 (colorectal cells) human cancer cells using sulphorhodamine B assay (SRB). This assay was performed as previously published.
(§2) The antiproliferative activity of the target compounds was assessed on three cancer lines, MCF-7, HepG2 and HCT-116 cells using sulforhodamine assay. […].

[2] = biological target: EGFR (Homo sapiens, UniProt P00533); experiment: In vitro EGFR kinase inhibitory activity (ELISA, EGFR Erb B1 kinase kit)
Chain of EGFR (P00533 25-1210): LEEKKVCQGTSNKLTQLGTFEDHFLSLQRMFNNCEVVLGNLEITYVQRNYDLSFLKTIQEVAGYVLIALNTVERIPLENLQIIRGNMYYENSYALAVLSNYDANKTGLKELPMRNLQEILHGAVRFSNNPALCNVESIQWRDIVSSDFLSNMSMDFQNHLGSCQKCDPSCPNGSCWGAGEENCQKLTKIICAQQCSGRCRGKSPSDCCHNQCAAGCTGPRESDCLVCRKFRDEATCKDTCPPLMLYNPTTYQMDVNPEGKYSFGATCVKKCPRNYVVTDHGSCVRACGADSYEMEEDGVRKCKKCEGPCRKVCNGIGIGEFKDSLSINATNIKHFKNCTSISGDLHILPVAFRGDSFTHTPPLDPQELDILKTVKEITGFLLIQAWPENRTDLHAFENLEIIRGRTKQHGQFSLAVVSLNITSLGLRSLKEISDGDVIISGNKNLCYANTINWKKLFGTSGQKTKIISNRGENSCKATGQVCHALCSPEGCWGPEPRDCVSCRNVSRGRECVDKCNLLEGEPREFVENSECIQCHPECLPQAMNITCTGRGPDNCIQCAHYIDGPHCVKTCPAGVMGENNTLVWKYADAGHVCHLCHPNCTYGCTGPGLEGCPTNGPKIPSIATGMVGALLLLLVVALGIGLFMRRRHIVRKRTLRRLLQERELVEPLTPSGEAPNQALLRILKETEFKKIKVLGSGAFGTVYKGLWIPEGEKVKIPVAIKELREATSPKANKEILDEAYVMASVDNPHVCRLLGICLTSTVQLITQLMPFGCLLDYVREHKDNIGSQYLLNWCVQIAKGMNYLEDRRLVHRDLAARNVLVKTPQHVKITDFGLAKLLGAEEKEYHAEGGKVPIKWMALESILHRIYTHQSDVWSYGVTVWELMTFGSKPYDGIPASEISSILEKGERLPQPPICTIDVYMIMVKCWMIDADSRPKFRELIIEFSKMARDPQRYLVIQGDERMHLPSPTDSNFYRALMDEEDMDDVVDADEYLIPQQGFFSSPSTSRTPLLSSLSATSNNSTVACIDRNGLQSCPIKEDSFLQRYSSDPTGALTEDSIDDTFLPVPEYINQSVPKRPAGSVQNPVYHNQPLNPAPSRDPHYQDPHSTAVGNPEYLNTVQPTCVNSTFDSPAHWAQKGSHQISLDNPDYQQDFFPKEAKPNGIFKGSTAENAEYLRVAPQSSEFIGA
Protocol: Briefly, solutions of kinase/peptide and ATP were prepared prior to use. […] Then, 5 mL of this prepared solution was added into 96 well plates, incubated for 1 h and determined by an ELISA Reader (Perkin Elmer, Waltham, MA, USA). Each experiment was repeated three times and IC50 represented as mean ± S.E, was calculated using Graph Pad Prism 5.

[3] = test system: HepG2 (Hepatocellular); experiment: Antiproliferative activity, sulphorhodamine B (SRB) assay, HepG2; type: cell-based; conditions: Homo sapiens, HepG2, cytotoxicity, HepG2 liver cancer cells, mean of three independent experiments
Protocol: as §1, §2

[4] = test system: HCT-116 (colorectal cells); experiment: Antiproliferative activity, sulphorhodamine B (SRB) assay, HCT-116; type: cell-based; conditions: Homo sapiens, HCT-116, cytotoxicity, HCT-116 colorectal cancer cells, mean of three independent experiments
Protocol: as §1, §2

[5] = test system: HepG2; experiment: Apoptosis, acridine orange/ethidium bromide staining, HepG2; type: cell-based, human; conditions: HepG2, AO/EtBr dual staining, 48 h, fluorescent microscope
Protocol: (§3) AO and EtBr are DNA binding dyes. They have been used for detection of the morphological features of apoptotic and necrotic cells. The stainings were performed according the protocol as previously published.
(§4) The MCF-7, HepG2 and HCT 116 cancer cells were categorized by AO/EtBr dual staining. The different colors of the cells indicate different stages of apoptosis. […] and examined under a fluorescent microscope. Regularly stained green with normal, round, intact nuclei and cytoplasm indicates the viability of the normal cell (control).

[6] = test system: MCF-7; experiment: Apoptosis, acridine orange/ethidium bromide staining, MCF-7; type: cell-based, human; conditions: MCF-7, AO/EtBr dual staining, 48 h, fluorescent microscope
Protocol: as §3, §4

[7] = test system: HCT 116; experiment: Apoptosis, acridine orange/ethidium bromide staining, HCT 116; type: cell-based, human; conditions: HCT 116, AO/EtBr dual staining, 48 h, fluorescent microscope
Protocol: as §3, §4

What does the source list for `COc1ccc2cc([C@H](C)c3nnc(SCc4cn(-c5ccc(Br)cc5)nn4)o3)ccc2c1` [Compound 14]?
IC50 [1]: 7.5 µg/mL (≈ 14.4 µM); IC50 [2]: 5120 ± 210 nM; IC50 [3]: 7.63 µg/mL (≈ 14.6 µM); IC50 [4]: 86.1 µg/mL (≈ 165 µM); melting point: 160 to 161 °C

Which IC50 [1] does the source give for `COc1ccc2cc([C@H](C)c3nnc(SCc4cn(-c5cccc(C(=O)O)c5)nn4)o3)ccc2c1` [Compound 16] here?
The IC50 was 10.4 µg/mL (≈ 21.4 µM).

What about the IC50 [2] of the same molecule?
Its IC50 is 2270 ± 170 nM.

What about the IC50 [3] of the same molecule?
Its IC50 is 10.7 µg/mL (≈ 21.9 µM).

And the Late apoptosis [5]?
Its Late apoptosis is “observed at a high rate”.

What about the Necrosis [5] of the same molecule?
Its Necrosis is “high percentage of necrosis”.

And the IC50 [4]?
Its IC50 is 8.36 µg/mL (≈ 17.1 µM).

And the Late apoptosis [6]?
The Late apoptosis was “observed at a high rate”.

What about the Necrosis [6] of the same molecule?
The Necrosis was “high percentage of necrosis”.

What does the source list for `COc1ccc2cc([C@H](C)c3nnc(SCc4cn(-c5cccc(Br)c5)nn4)o3)ccc2c1` [Compound 13]?
IC50 [1]: 15.8 µg/mL (≈ 30.3 µM); IC50 [2]: 3420 ± 110 nM; IC50 [3]: 7.07 µg/mL (≈ 13.5 µM); IC50 [4]: 29.3 µg/mL (≈ 56 µM)

With `COc1ccc2cc([C@H](C)c3nnc(SCc4cn(-c5ccccc5O)nn4)o3)ccc2c1` [Compound 15, 2-(4-((5-((S)-1-(2-methoxynaphthalen-6-yl)ethyl)-1,3,4-oxadiazol-2-ylthio)methyl)-1H-1,2,3-triazol-1-yl)phenol] as the molecule, how does the IC50 [1] read?
Its IC50 is 2.13 µg/mL (≈ 4.64 µM).

And the IC50 [2]?
Its IC50 is 410 ± 120 nM.

What about the IC50 [3] of the same molecule?
Its IC50 is 1.63 µg/mL (≈ 3.55 µM).

And the “Early apoptosis (cell death)” value [5]?
The value was “percentage of cell death decreased”.

What about the IC50 [4] of the same molecule?
Its IC50 is 29.1 µg/mL (≈ 63.3 µM).

And the “Early apoptosis (cell death)” value [7]?
Its value is “percentage of cell death decreased”.

And the Late apoptosis [7]?
The Late apoptosis was “induces more late apoptosis”.

What about the Necrosis [7] of the same molecule?
The Necrosis was “high percentage of necrosis”.

Which IC50 [1] does the source give for `COc1ccc2cc([C@H](C)c3nnc(SCc4cn(-c5ccccc5Cl)nn4)o3)ccc2c1` [Compound 10] here?
Its IC50 is 5.05 µg/mL (≈ 10.6 µM).

And the IC50 [2]?
Its IC50 is 670 ± 330 nM.

And the IC50 [3]?
The IC50 was 3.53 µg/mL (≈ 7.39 µM).

And the “Early apoptosis (cell death)” value [5]?
Its value is “significant rate of cell death in early apoptosis”.

And the IC50 [4]?
Its IC50 is 33.9 µg/mL (≈ 70.9 µM).

And the “Early apoptosis (cell death)” value [6]?
The value was “significant rate of cell death in early apoptosis”.

And the “Early apoptosis (cell death)” value [7]?
Its value is “significant rate of cell death in early apoptosis”.

With `COc1ccc2cc([C@H](C)c3nnc(SCC(=O)Nc4ccc(Br)cc4)o3)ccc2c1` [Compound 23] as the molecule, how does the IC50 [1] read?
The IC50 was 25.6 µg/mL (≈ 51.3 µM).

What about the IC50 [3] of the same molecule?
Its IC50 is 15 µg/mL (≈ 30 µM).

And the IC50 [4]?
Its IC50 is 35.1 µg/mL (≈ 70.5 µM).

And the melting point?
The melting point was 148 to 149 °C.

For `COc1ccc2cc([C@H](C)c3nnc(SCC(=O)Nc4ccc(F)cc4F)o3)ccc2c1` [Compound 20], which IC50 [1] is on record?
The IC50 was 32.6 µg/mL (≈ 71.7 µM).

What about the IC50 [3] of the same molecule?
The IC50 was 31.3 µg/mL (≈ 68.8 µM).

What about the IC50 [4] of the same molecule?
Its IC50 is 73.4 µg/mL (≈ 161 µM).

And the melting point?
Its melting point is 102 to 103 °C.

Which IC50 [1] does the source give for `COc1ccc2cc([C@H](C)c3nnc(SCC(=O)Nc4ccccc4C(=O)O)o3)ccc2c1` [Compound 25] here?
Its IC50 is 29.8 µg/mL (≈ 64.3 µM).

And the IC50 [3]?
The IC50 was 28 µg/mL (≈ 60.5 µM).

What about the IC50 [4] of the same molecule?
The IC50 was 29.2 µg/mL (≈ 63 µM).

What about the melting point of the same molecule?
Its melting point is 130 to 131 °C.

Which results are given for `COc1cccc2c1C(=O)c1c(O)c3c(c(O)c1C2=O)C[C@@](O)(C(=O)CO)C[C@@H]3O[C@H]1C[C@H](N)[C@H](O)[C@H](C)O1` [Doxorubicin, reference compound]?
IC50 [1]: 1.41 µg/mL (≈ 2.59 µM); IC50 [3]: 1.62 µg/mL (≈ 2.98 µM); IC50 [4]: 2.11 µg/mL (≈ 3.88 µM)

Which IC50 [1] does the source give for `COc1ccc2cc([C@H](C)c3nnc(SCC(=O)N4CCOCC4)o3)ccc2c1` [Compound 26] here?
The IC50 was 22.3 µg/mL (≈ 53.9 µM).

What about the IC50 [3] of the same molecule?
Its IC50 is 23.6 µg/mL (≈ 57.2 µM).

And the IC50 [4]?
The IC50 was 11.1 µg/mL (≈ 26.8 µM).

What does the source list for `COc1ccc2cc([C@H](C)c3nnc(SCC(=O)Nc4ccccc4C)o3)ccc2c1` [Compound 24]?
IC50 [1]: 8.15 µg/mL (≈ 18.8 µM); IC50 [2]: 1080 ± 310 nM; IC50 [3]: 4.88 µg/mL (≈ 11.3 µM); IC50 [4]: 29.3 µg/mL (≈ 67.7 µM)

For `COc1ccc2cc([C@H](C)c3nnc(SCc4cn(-c5ccc(Cl)cc5Cl)nn4)o3)ccc2c1` [Compound 12], which IC50 [1] is on record?
The IC50 was 45.7 µg/mL (≈ 89.2 µM).

What about the IC50 [3] of the same molecule?
The IC50 was 26.4 µg/mL (≈ 51.5 µM).

What about the IC50 [4] of the same molecule?
The IC50 was 28.1 µg/mL (≈ 54.9 µM).

What about the melting point of the same molecule?
The melting point was 102 to 103 °C.

For `COc1ccc2cc([C@H](C)c3nnc(SCc4cn(-c5ccc(F)cc5F)nn4)o3)ccc2c1` [Compound 9], which IC50 [1] is on record?
The IC50 was 6.47 µg/mL (≈ 13.5 µM).

What about the IC50 [2] of the same molecule?
Its IC50 is 710 ± 170 nM.

What about the IC50 [3] of the same molecule?
Its IC50 is 4.52 µg/mL (≈ 9.43 µM).

And the “Early apoptosis (cell death)” value [5]?
The value was “significant rate of cell death in early apoptosis”.

What about the Necrosis [5] of the same molecule?
The Necrosis was “does not cause death of the necrosis pathway”.

What about the IC50 [4] of the same molecule?
Its IC50 is 7.46 µg/mL (≈ 15.6 µM).

And the “Early apoptosis (cell death)” value [6]?
Its value is “significant rate of cell death in early apoptosis”.

And the Necrosis [6]?
The Necrosis was “does not cause death of the necrosis pathway”.

And the “Early apoptosis (cell death)” value [7]?
Its value is “significant rate of cell death in early apoptosis”.

What about the Necrosis [7] of the same molecule?
Its Necrosis is “does not cause death of the necrosis pathway”.

What does the source list for `COc1ccc2cc([C@H](C)c3nnc(SCC(=O)Nc4cccc(Br)c4)o3)ccc2c1` [Compound 22]?
IC50 [1]: > 100 µg/mL; IC50 [3]: > 100 µg/mL; melting point: 129 to 130 °C

Which IC50 [1] does the source give for `COc1ccc2cc([C@H](C)c3nnc(SCc4cn(-c5ccc(F)cc5)nn4)o3)ccc2c1` [Compound 8] here?
The IC50 was 7.38 µg/mL (≈ 16 µM).

What about the IC50 [2] of the same molecule?
Its IC50 is 7310 ± 250 nM.

What about the IC50 [3] of the same molecule?
The IC50 was 25.5 µg/mL (≈ 55.2 µM).

What about the IC50 [4] of the same molecule?
The IC50 was 15.7 µg/mL (≈ 33.9 µM).

What about the melting point of the same molecule?
Its melting point is 99 to 100 °C.

For `COc1ccc2cc([C@H](C)c3nnc(SCC(=O)Nc4ccc(F)cc4)o3)ccc2c1` [Compound 19], which melting point is on record?
Its melting point is 220 to 221 °C.

Which IC50 [1] does the source give for `COc1ccc2cc([C@H](C)c3nnc(SCc4cn(-c5cccc(Cl)c5)nn4)o3)ccc2c1` [Compound 11] here?
The IC50 was 60.5 µg/mL (≈ 126 µM).

What about the IC50 [3] of the same molecule?
Its IC50 is 37.9 µg/mL (≈ 79.3 µM).

What about the IC50 [4] of the same molecule?
Its IC50 is 83.9 µg/mL (≈ 176 µM).

With `COc1ccc2cc([C@H](C)c3nnc(SCC(=O)Nc4cccc(Cl)c4)o3)ccc2c1` [Compound 21] as the molecule, how does the IC50 [1] read?
The IC50 was 25.9 µg/mL (≈ 57.1 µM).

And the IC50 [2]?
The IC50 was 820 ± 280 nM.

What about the IC50 [3] of the same molecule?
The IC50 was 7 µg/mL (≈ 15.4 µM).

And the IC50 [4]?
Its IC50 is 1.24 µg/mL (≈ 2.73 µM).
